Measured values as given in ChEMBL document CHEMBL5050844 (2019).

Tests used:
[1] = target: E3 ubiquitin-protein ligase CBL-B (Homo sapiens, UniProt Q13191); experiment: Inhibition of N-terminal Avi-tagged human CBL-B (36 to 427 residues) incubated with 60 nM Src kinase for 1.5 hrs followed by incubation with fluorescently labeled UbcH5B-Ub for 1 hr and measured by TR-FRET assay; type: single protein
[2] = Induction of anti-CD3 antibodies-stimulated human T cell activation at 1 uM assessed fold increase in CD25 expression measured by ELISA assay; type: functional, T cell line; note: reference of the scale not given here
[3] = Induction of anti-CD3/CD28 antibodies-stimulated human T cell activation at 0.3 uM assessed fold increase in IL-2 secretion measured by ELISA assay; type: functional, T cell line
[4] = Induction of anti-CD3/CD28 antibodies-stimulated human T cell activation at 1 uM assessed fold increase in CD25 expression measured by ELISA assay; type: functional, T cell line
[5] = Induction of anti-CD3 antibodies-stimulated human T cell activation at 1 uM assessed fold increase in IL-2 secretion measured by ELISA assay; type: functional, T cell line; note: reference of the scale not given here
[6] = Induction of anti-CD3/CD28 antibodies-stimulated human T cell activation at 1 uM assessed fold increase in IL-2 secretion measured by ELISA assay; type: functional, T cell line
[7] = Induction of anti-CD3/CD28 antibodies-stimulated human T cell activation at 0.3 uM assessed fold increase in CD25 expression measured by ELISA assay; type: functional, T cell line

E3 ubiquitin-protein ligase CBL-B, sequence (Q13191 whole entry, the tested form may be a part): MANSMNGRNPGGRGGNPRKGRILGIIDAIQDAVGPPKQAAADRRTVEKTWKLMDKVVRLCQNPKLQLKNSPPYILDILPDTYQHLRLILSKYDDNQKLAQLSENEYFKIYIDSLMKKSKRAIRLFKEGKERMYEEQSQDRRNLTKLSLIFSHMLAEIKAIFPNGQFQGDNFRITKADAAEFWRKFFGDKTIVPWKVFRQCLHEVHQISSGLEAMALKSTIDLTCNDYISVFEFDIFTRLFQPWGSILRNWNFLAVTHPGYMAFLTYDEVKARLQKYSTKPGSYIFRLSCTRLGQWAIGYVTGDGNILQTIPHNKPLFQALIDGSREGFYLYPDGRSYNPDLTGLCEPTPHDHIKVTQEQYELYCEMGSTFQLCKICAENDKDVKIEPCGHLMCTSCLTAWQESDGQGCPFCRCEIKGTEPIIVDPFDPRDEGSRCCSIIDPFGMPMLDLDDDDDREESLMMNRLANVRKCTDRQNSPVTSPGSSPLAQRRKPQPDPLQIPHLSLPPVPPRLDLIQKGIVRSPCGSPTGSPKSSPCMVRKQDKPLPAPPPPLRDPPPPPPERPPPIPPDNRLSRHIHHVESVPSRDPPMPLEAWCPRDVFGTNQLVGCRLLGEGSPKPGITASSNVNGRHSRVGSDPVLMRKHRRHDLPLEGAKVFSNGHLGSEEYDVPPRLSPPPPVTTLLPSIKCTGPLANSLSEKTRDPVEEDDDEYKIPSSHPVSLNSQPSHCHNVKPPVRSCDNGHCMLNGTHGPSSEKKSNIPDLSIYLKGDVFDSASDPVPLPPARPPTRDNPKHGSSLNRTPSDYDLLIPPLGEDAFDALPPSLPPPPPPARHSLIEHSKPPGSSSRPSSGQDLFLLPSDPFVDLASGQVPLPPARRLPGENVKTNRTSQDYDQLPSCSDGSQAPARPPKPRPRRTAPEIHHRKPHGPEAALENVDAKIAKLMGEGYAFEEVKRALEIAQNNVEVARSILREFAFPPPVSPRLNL

## CN(c1cc2c(c(C(F)(F)F)c1)CN(c1cccc([C@@](C)(F)C(F)(F)c3nncn3C)c1)C2=O)[C@H]1CNC[C@@H]1F
[1]
  IC50: < 100 nM

## Cn1cnnc1CC1(c2cccc(N3Cc4c(cc(CN5Cc6ccc(Cl)cc6C5)cc4C(F)(F)F)C3=O)c2)COC1
[1]
  IC50: < 100 nM

## Cn1cnnc1CC1(c2cccc(N3Cc4c(cc(CN5CC6CC(C5)C6(F)F)cc4C(F)(F)F)C3=O)c2)COC1
[1]
  IC50: < 100 nM

## Cn1cnnc1CC1(c2cccc(N3Cc4c(cc(CN5CCOC(C6CC6)C5)cc4C(F)(F)F)C3=O)c2)COC1 (stereo unspecified)
[1]
  IC50: < 100 nM

## Cn1cnnc1CC1(c2cccc(N3Cc4c(cc(C(O)C(F)(F)F)cc4C(F)(F)F)C3=O)c2)COC1 (stereo unspecified)
[1]
  IC50: < 100 nM

## CC1=C(c2cc3c(c(C(F)(F)F)c2)CN(c2cccc(C4(Cc5nncn5C)COC4)c2)C3=O)CCO1
[1]
  IC50: < 100 nM

## Cn1cnnc1CC1(c2cccc(N3Cc4c(cc(CN5CC[C@@H]6OCC[C@@H]6C5)cc4C(F)(F)F)C3=O)c2)COC1 (relative stereo)
[1]
  IC50: < 100 nM

## C[C@@H](Sc1nncn1C)c1ccc(F)c(N2Cc3c(cccc3C(F)(F)F)C2=O)c1
[1]
  IC50: > 10000 nM

## C[C@@H](Cc1n[nH]cc1CO)c1cccc(N2Cc3c(cccc3C(F)(F)F)C2=O)c1
[1]
  IC50: > 10000 nM

## Cn1cnnc1CC1(c2cccc(N3Cc4c(cc(CN5CCO[C@H](CO)C5)cc4C(F)(F)F)C3=O)c2)COC1
[1]
  IC50: < 100 nM

## Cn1cnnc1CC1(c2cccc(N3Cc4c(cc(CN5CCC(F)(F)C(O)C5)cc4C(F)(F)F)C3=O)c2)COC1 (stereo unspecified)
[1]
  IC50: < 100 nM

## Cc1cn(C)c(SC(C)c2ccnc(NC(=O)c3ccc4ccccc4n3)c2)n1 (stereo unspecified)
[1]
  IC50: > 10000 nM

## Cn1cnnc1CC1(c2cccc(N3Cc4c(cc(CN5CCN6C(=O)CCC6C5)cc4C(F)(F)F)C3=O)c2)COC1 (stereo unspecified)
[1]
  IC50: < 100 nM

## Cc1nnnn1CC(C)c1cccc(NC(=O)c2cccc(C(F)(F)F)n2)c1 (stereo unspecified)
[1]
  IC50: > 10000 nM

## CN1CC[C@H](O)C(Cc2cc3c(c(C(F)(F)F)c2)CN(c2cccc(C4(Cc5nncn5C)COC4)c2)C3=O)C1 (single isomer, unassigned)
[1]
  IC50: < 100 nM

## Cn1cnnc1CC1(c2cccc(N3Cc4c(cc(CN5CCOC(C6CCC6)C5)cc4C(F)(F)F)C3=O)c2)COC1 (stereo unspecified)
[1]
  IC50: < 100 nM

## Cn1cnnc1CC1(c2cccc(N3Cc4c(cc(CN5CCC(F)CC5)cc4C4CC4)C3=O)c2)COC1
[1]
  IC50: < 100 nM

## COc1ccc2c(c1)CN(Cc1cc3c(c(C(F)(F)F)c1)CN(c1cccc(C4(Cc5nncn5C)COC4)c1)C3=O)CC2
[1]
  IC50: < 100 nM

## Cn1cnnc1CC1(c2cccc(N3Cc4c(cc(CC5CNCCC5=O)cc4C(F)(F)F)C3=O)c2)COC1 (stereo unspecified)
[1]
  IC50: < 100 nM

## C[C@H](Sc1nncn1C)c1cccc(NC(=O)c2cccc(N(C)C)c2)c1
[1]
  IC50: > 10000 nM

## Cn1cnnc1CC1(c2cccc(N3Cc4c(cc(CN5CCc6cc(C#N)ccc6C5)cc4C(F)(F)F)C3=O)c2)COC1
[1]
  IC50: < 100 nM

## Cn1cnnc1CC1(c2cccc(N3Cc4c(cc(CN5CC[C@@H]6NCCO[C@@H]6C5)cc4C(F)(F)F)C3=O)c2)COC1 (relative stereo)
[1]
  IC50: < 100 nM

## Cn1cnnc1CC1(c2cccc(N3Cc4c(cc(CN5CCc6ccncc6C5)cc4C(F)(F)F)C3=O)c2)COC1
[1]
  IC50: < 100 nM

## Cn1cnnc1CC1(c2cccc(N3Cc4c(cc(CN5CCc6cnccc6C5)cc4C(F)(F)F)C3=O)c2)COC1
[1]
  IC50: < 100 nM

## Cn1cnnc1CC1(c2cccc(N3Cc4c(cc(CN5CCOC6(CC6)C5)cc4C(F)(F)F)C3=O)c2)COC1
[1]
  IC50: < 100 nM

## C[C@@H]1CN(Cc2cc3c(c(C(F)(F)F)c2)CN(c2cccc(-c4c(-c5nncn5C)cnn4C)c2)C3=O)CCO1
[1]
  IC50: < 100 nM

## Cn1cnnc1CC1(c2cccc(N3Cc4c(cc(CN5CCOC(CF)C5)cc4C(F)(F)F)C3=O)c2)COC1 (stereo unspecified)
[1]
  IC50: < 100 nM

## CC(c1cc2c(c(C(F)(F)F)c1)CN(c1cccc(C3(C(F)(F)c4nncn4C)COC3)c1)C2=O)N1CC[C@H](F)C1 (stereo partly specified)
[1]
  IC50: < 100 nM

## Cn1cnnc1CC1(c2cccc(N3Cc4c(cc(CN5CCOC6(CCOC6)C5)cc4C(F)(F)F)C3=O)c2)COC1 (stereo unspecified)
[1]
  IC50: < 100 nM

## CN(c1cc2c(c(C(F)(F)F)c1)CN(c1cccc([C@@](C)(F)C(F)(F)c3nncn3C)c1)C2=O)[C@@H]1CNC[C@H]1F
[1]
  IC50: < 100 nM

## CC(c1cc(C(=O)Nc2cccc(C3(Cc4nncn4C)COC3)c2)nc(C2CC2)n1)N1CCC2(CC2)C1 (single isomer, unassigned; 592b)
[1]
  IC50: < 100 nM

## C[C@H]1CCN(Cc2cc3c(c(C(F)(F)F)c2)CN(c2cccc(C4(Cc5nncn5C)COC4)c2)C3=O)C[C@H]1F
[1]
  IC50: < 100 nM

## Cn1cnnc1CC1(c2cccc(N3Cc4c(cc(CN5CC[C@H](F)[C@@H](F)C5)cc4C(F)(F)F)C3=O)c2)COC1
[1]
  IC50: < 100 nM

## Cn1cnnc1CC1(c2cccc(N3Cc4c(cc(CN5CC[C@@H](F)[C@H](F)C5)cc4C(F)(F)F)C3=O)c2)COC1
[1]
  IC50: < 100 nM

## Cn1cnnc1CC1(c2cccc(N3Cc4c(cc(CN5CCc6ncccc6C5)cc4C(F)(F)F)C3=O)c2)COC1
[1]
  IC50: < 100 nM

## Cc1cc(C(=O)Nc2cccc(C3(Cc4[nH]ncc4C)COC3)c2)nc(C2CC2)n1
[1]
  IC50: < 100 nM

## Cn1cnnc1CC1(c2cccc(N3Cc4c(cc(CN5CCc6cccnc6C5)cc4C(F)(F)F)C3=O)c2)COC1
[1]
  IC50: < 100 nM

## Cn1cnnc1CC1(c2cccc(N3Cc4c(cc(CN5CCOC(C)(C)C5)cc4C(F)(F)F)C3=O)c2)COC1
[1]
  IC50: < 100 nM

## C[C@H](Cc1nncn1C)c1cc(C2CCOCC2)nc(N2Cc3c(cccc3C(F)(F)F)C2=O)c1
[2]
  fold change (FC): <=0.6
[3]
  fold change (FC): 1.01
[4]
  fold change (FC): 1.01
[5]
  fold change (FC): <=0.05
[6]
  fold change (FC): 1.01
[7]
  fold change (FC): 1.01

## Cc1cnn2c(C(=O)Nc3cccc(C4(Cc5nncn5C)COC4)c3)cc(C(F)(F)F)nc12
[2]
  fold change (FC): 0.601
[3]
  fold change (FC): <=1
[4]
  fold change (FC): 1.01
[5]
  fold change (FC): <=0.05
[6]
  fold change (FC): 1.01
[7]
  fold change (FC): 1.01

## Cn1cnnc1CC1(c2cccc(N3Cc4c(cc(C(F)(F)C(=O)O)cc4C(F)(F)F)C3=O)c2)COC1
[2]
  fold change (FC): 0.601
[3]
  fold change (FC): 1.01
[4]
  fold change (FC): 1.01
[5]
  fold change (FC): <=0.05
[6]
  fold change (FC): 1.01
[7]
  fold change (FC): 1.01

## Cc1cc(C(=O)Nc2cccc(-c3c(-c4nncn4C)cnn3C)c2)nc(C2CC2)n1
[2]
  fold change (FC): 0.601
[3]
  fold change (FC): 1.01
[4]
  fold change (FC): 1.01
[5]
  fold change (FC): 0.101
[6]
  fold change (FC): 1.01
[7]
  fold change (FC): 1.01

## Cn1cnnc1CC1(c2cccc(N3Cc4c(ccc(F)c4C4CC4)C3=O)c2)COC1
[2]
  fold change (FC): 0.601
[3]
  fold change (FC): 1.01
[4]
  fold change (FC): 1.01
[5]
  fold change (FC): 0.051
[6]
  fold change (FC): 1.01
[7]
  fold change (FC): 1.01

## CN(c1cc2c(c(C(F)(F)F)c1)CN(c1cccc([C@@](C)(F)C(F)(F)c3nncn3C)c1)C2=O)[C@H]1CNC[C@H]1F
[2]
  fold change (FC): 0.801
[3]
  fold change (FC): 1.01
[4]
  fold change (FC): 1.31
[5]
  fold change (FC): 0.151
[6]
  fold change (FC): 2.51
[7]
  fold change (FC): 1.01

## C[C@H](Cc1nncn1C)c1cc(N2Cc3c(cccc3C(F)(F)F)C2=O)nc(C2(C)CC2)c1
[2]
  fold change (FC): <=0.6
[3]
  fold change (FC): 1.01
[4]
  fold change (FC): 1.01
[5]
  fold change (FC): 0.051
[6]
  fold change (FC): 1.01
[7]
  fold change (FC): 1.01

## Cn1cnnc1OC1(c2cccc(N3Cc4c(cc(CN5CCC(F)CC5)cc4C(F)(F)F)C3=O)c2)COC1
[2]
  fold change (FC): 0.601
[3]
  fold change (FC): 1.01
[4]
  fold change (FC): 1.31
[5]
  fold change (FC): <=0.05
[6]
  fold change (FC): 2.51
[7]
  fold change (FC): 1.01
